Patent US20220144839A1, “INDOLE AHR INHIBITORS AND USES THEREOF” (Ikena Oncology, Inc., priority 2018, published 2022)

These molecules were tested against T1, AHR (UniProt P35869) (assay: DRE-Luciferase Reporter Assay (Alternate Method), Example 1B). Details: concentration which inhibits half of the luciferase activity induced by AHR activating ligand; DRE-luciferase reporter cell line.
T1 sequence (P35869 1-848): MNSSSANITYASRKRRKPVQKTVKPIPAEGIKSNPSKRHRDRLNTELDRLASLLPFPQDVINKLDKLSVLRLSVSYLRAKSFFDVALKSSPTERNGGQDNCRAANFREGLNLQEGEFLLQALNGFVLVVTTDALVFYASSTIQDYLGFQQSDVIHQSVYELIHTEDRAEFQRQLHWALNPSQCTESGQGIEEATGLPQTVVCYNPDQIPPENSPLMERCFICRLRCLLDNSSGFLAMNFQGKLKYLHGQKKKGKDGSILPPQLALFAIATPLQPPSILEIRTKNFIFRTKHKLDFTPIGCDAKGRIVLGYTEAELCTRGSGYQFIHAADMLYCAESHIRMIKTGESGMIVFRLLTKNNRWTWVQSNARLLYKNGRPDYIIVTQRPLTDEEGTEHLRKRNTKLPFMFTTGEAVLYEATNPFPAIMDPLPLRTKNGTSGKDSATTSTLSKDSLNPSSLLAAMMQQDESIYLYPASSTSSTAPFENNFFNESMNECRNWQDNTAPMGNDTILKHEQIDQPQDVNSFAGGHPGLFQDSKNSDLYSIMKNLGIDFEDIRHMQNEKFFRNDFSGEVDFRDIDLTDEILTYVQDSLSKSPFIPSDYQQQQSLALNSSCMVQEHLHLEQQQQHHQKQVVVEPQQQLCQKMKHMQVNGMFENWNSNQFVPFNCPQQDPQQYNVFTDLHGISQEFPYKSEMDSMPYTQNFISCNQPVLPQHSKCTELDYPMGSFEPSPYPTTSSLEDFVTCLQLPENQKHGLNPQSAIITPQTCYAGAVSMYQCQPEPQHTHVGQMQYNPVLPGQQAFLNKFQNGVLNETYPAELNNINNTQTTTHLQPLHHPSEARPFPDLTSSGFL
Format: cell-based
Summary of the method: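 Murine (Hepa1-6, Hepa-1c1c7) or human (HepG2) cells carrying a stable or transient DRE-luciferase reporter, stimulated with an AHR agonist (e.g. TCDD, kynurenine, ITE, BNF, FICZ) plus compound at plating or after overnight culture at 37 °C. Luciferase read after 4, 15 or 24 h; IC50 as concentration halving agonist-only signal relative to no-ligand baseline.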
`CC(C)c1cnn2c(N[C@H]3CC[C@@H](O)CC3)nc(-c3cncc(F)c3)nc12` [Compound I-44b, 4-[[2-(5-Fluoro-3-pyridyl)-8-isopropyl-pyrazolo[1,5-a][1,3,5]triazin-4-yl]amino]cyclohexanol] was tested, and the IC50 was > 1500 nM.
`CC(C)c1cnn2c(NCCNc3ccccn3)nc(-c3cncc(F)c3)nc12` [Compound I-45, N′-[2-(5-Fluoro-3-pyridyl)-8-isopropyl-pyrazolo[1,5-a][1,3,5]triazin-4-yl]-N-(2-pyridyl)ethane-1,2-diamine] showed an IC50 of 1000 to 1500 nM.
`CC(C)c1cnn2c(N[C@H]3CCc4[nH]c5ccccc5c4C3)nc(-c3cncc(F)c3)nc12` [Compound I-47, (3S)—N-[2-(5-Fluoro-3-pyridyl)-8-isopropyl-pyrazolo[1,5-a][1,3,5]triazin-4-yl]-2,3,4,9-tetrahydro-1H-carbazol-3-amine] was tested, and the IC50 was < 500 nM.
`CC(C)c1cnn2c(N[C@@H]3CCc4ccccc4C3)nc(-c3cncc(F)c3)nc12` [Compound I-48a, 2-(5-Fluoro-3-pyridyl)-8-isopropyl-N-[(2R)-tetralin-2-yl]pyrazolo[1,5-a][1,3,5]triazin-4-amine] was tested, and the IC50 was > 1500 nM.
With `CC(C)c1cnn2c(N[C@H]3CCc4ccccc4C3)nc(-c3cncc(F)c3)nc12` [Compound I-48b, 2-(5-Fluoro-3-pyridyl)-8-isopropyl-N-[(2S)-tetralin-2-yl]pyrazolo[1,5-a][1,3,5]triazin-4-amine] the IC50 was > 1500 nM.
For `CC(CO)CNc1nc(-c2cncc(F)c2)nc2c(C(C)C)cnn12` (centres unmarked) [Compound I-49, 3-[[2-(5-Fluoro-3-pyridyl)-8-isopropyl-pyrazolo[1,5-a][1,3,5]triazin-4-yl]amino]-2-methyl-propan-1-ol], the IC50 was > 1500 nM.
For `Fc1cncc(-c2nc(N[C@@H]3CCc4[nH]c5ccccc5c4C3)n3nc4c(c3n2)CNCC4)c1` [Compound I-50, 2-(5-Fluoro-3-pyridyl)-N-[(3R)-2,3,4,9-tetrahydro-1H-carbazol-3-yl]-7,8,9,10-tetrahydropyrido[2,3]pyrazolo[2,4-c][1,3,5]triazin-4-amine], the IC50 was > 1500 nM.
`CNc1cnn2c(N[C@@H]3CCc4[nH]c5ccccc5c4C3)nc(-c3cncc(F)c3)nc12` [Compound I-51, 2-(5-Fluoro-3-pyridyl)-N8-methyl-N4-[(3R)-2,3,4,9-tetrahydro-1H-carbazol-3-yl]pyrazolo[1,5-a][1,3,5]triazine-4,8-diamine] was tested, and the IC50 was < 500 nM.
Work on `CN1CCN(c2cnn3c(N[C@@H]4CCc5[nH]c6ccccc6c5C4)nc(-c4cncc(F)c4)nc23)CC1` [Compound I-52, (3R)—N-[2-(5-Fluoro-3-pyridyl)-8-(4-methylpiperazin-1-yl)pyrazolo[1,5-a][1,3,5]triazin-4-yl]-2,3,4,9-tetrahydro-1H-carbazol-3-amine] yielded an IC50 of 500 to 1000 nM.
`CC(C)c1cnn2c(N[C@@H]3CCc4[nH]c5ccccc5c4C3)nc(-c3cnsc3)nc12` [Compound I-53, (3R)—N-(8-Isopropyl-2-isothiazol-4-yl-pyrazolo[1,5-a][1,3,5]triazin-4-yl)-2,3,4,9-tetrahydro-1H-carbazol-3-amine] showed an IC50 of 500 to 1000 nM.
With `CC(C)c1cnn2c(NCCCCO)nc(-c3cnsc3)nc12` [Compound I-54, 4-[(8-Isopropyl-2-isothiazol-4-yl-pyrazolo[1,5-a][1,3,5]triazin-4-yl)amino]butan-1-ol] the IC50 was > 1500 nM.
`CC(C)c1cnn2c(N[C@H]3Cc4cncnc4NC3=O)nc(-c3cncc(F)c3)nc12` [Compound I-55a] was tested, and the IC50 was > 1500 nM.
In the case of `CC(C)c1cnn2c(N[C@@H]3Cc4cncnc4NC3=O)nc(-c3cncc(F)c3)nc12` [Compound I-55b, (6R)-6-[[2-(5-fluoro-3-pyridyl)-8-isopropyl-pyrazolo[1,5-a][1,3,5]triazin-4-yl]amino]-6,8-dihydro-5H-pyrido[2,3-d]pyrimidin-7-one], the IC50 is reported as > 1500 nM.
For `C[C@H](NC(=O)N1CCOCC1)c1cnn2c(N[C@@H]3CCc4[nH]c5ccccc5c4C3)nc(-c3cncc(F)c3)nc12` [Compound I-56a, N-[(1S)-1-[2-(5-Fluoro-3-pyridyl)-4-[[(3R)-2,3,4,9-tetrahydro-1H-carbazol-3-yl]amino]pyrazolo[1,5-a][1,3,5]triazin-8-yl]ethyl]morpholine-4-carboxamide], the IC50 was < 500 nM.
`C[C@@H](NC(=O)N1CCOCC1)c1cnn2c(N[C@@H]3CCc4[nH]c5ccccc5c4C3)nc(-c3cncc(F)c3)nc12` [Compound I-56b, N-[(1R)-1-[2-(5-Fluoro-3-pyridyl)-4-[[(3R)-2,3,4,9-tetrahydro-1H-carbazol-3-yl]amino]pyrazolo[1,5-a][1,3,5]triazin-8-yl]ethyl]morpholine-4-carboxamide] was tested, and the IC50 was < 500 nM.
In the case of `CC(C)c1cnn2c(NCCc3cccnc3N)nc(-c3cncc(F)c3)nc12` [Compound I-58, N-[2-(2-Amino-3-pyridyl)ethyl]-2-(5-fluoro-3-pyridyl)-8-isopropyl-pyrazolo[1,5-a][1,3,5]triazin-4-amine], the IC50 is reported as < 500 nM.
With `[2H]C([2H])([2H])C(c1cnn2c(N[C@@H]3CCc4[nH]c5ccccc5c4C3)nc(-c3cncc(F)c3)nc12)C([2H])([2H])[2H]` [Compound I-59, (3R)—N-[2-(5-Fluoro-3-pyridyl)-8-[2,2,2-trideuterio-1-(trideuteriomethyl)ethyl]pyrazolo[1,5-a][1,3,5]triazin-4-yl]-2,3,4,9-tetrahydro-1H-carbazol-3-amine] the IC50 was < 500 nM.
With `CC(C)c1cnn2c(N[C@H]3CNc4ncncc4C3)nc(-c3cncc(F)c3)nc12` [Compound I-60a, (6R)—N-[2-(5-Fluoro-3-pyridyl)-8-isopropyl-pyrazolo[1,5-a][1,3,5]triazin-4-yl]-5,6,7,8-tetrahydropyrido[2,3-d]pyrimidin-6-amine] the IC50 was > 1500 nM.
In the case of `CC(C)c1cnn2c(N[C@@H]3CNc4ncncc4C3)nc(-c3cncc(F)c3)nc12` [Compound I-60b, (6S)—N-[2-(5-fluoro-3-pyridyl)-8-isopropyl-pyrazolo[1,5-a][1,3,5]triazin-4-yl]-5,6,7,8-tetrahydropyrido[2,3-d]pyrimidin-6-amine], the IC50 is reported as < 500 nM.
`C[C@H](NC(=O)N1CCN(C)CC1)c1cnn2c(N[C@@H]3CCc4[nH]c5ccccc5c4C3)nc(-c3cncc(F)c3)nc12` [Compound I-61a, N-[(1S)-1-[2-(5-Fluoro-3-pyridyl)-4-[[(3R)-2,3,4,9-tetrahydro-1H-carbazol-3-yl]amino]pyrazolo[1,5-a][1,3,5]triazin-8-yl]ethyl]-4-methyl-piperazine-1-carboxamide] was tested, and the IC50 was < 500 nM.
`C[C@@H](NC(=O)N1CCN(C)CC1)c1cnn2c(N[C@@H]3CCc4[nH]c5ccccc5c4C3)nc(-c3cncc(F)c3)nc12` [Compound I-61b, N-[(1R)-1-[2-(5-Fluoro-3-pyridyl)-4-[[(3R)-2,3,4,9-tetrahydro-1H-carbazol-3-yl]amino]pyrazolo[1,5-a][1,3,5]triazin-8-yl]ethyl]-4-methyl-piperazine-1-carboxamide] gave an IC50 of 500 to 1000 nM.
`CC(C)c1cnn2c(N[C@H]3Cc4[nH]cnc4NC3=O)nc(-c3cncc(F)c3)nc12` [Compound I-62a, (6S)-6-[[2-(5-Fluoro-3-pyridyl)-8-isopropyl-pyrazolo[1,5-a][1,3,5]triazin-4-yl]amino]-1,4,6,7-tetrahydroimidazo[4,5-b]pyridin-5-one] was tested, and the IC50 was > 1500 nM.
In the case of `CC(C)c1cnn2c(N[C@@H]3Cc4[nH]cnc4NC3=O)nc(-c3cncc(F)c3)nc12` [Compound I-62b, (6R)-6-[[2-(5-fluoro-3-pyridyl)-8-isopropyl-pyrazolo[1,5-a][1,3,5]triazin-4-yl]amino]-1,4,6,7-tetrahydroimidazo [4,5-b]pyridin-5-one], the IC50 is reported as > 1500 nM.
With `CC(C)c1cnn2c(N[C@@H]3CCc4c(ccnc4N)C3)nc(-c3cncc(F)c3)nc12` [Compound I-63a, (6R)—N6-[2-(5-Fluoro-3-pyridyl)-8-isopropyl-pyrazolo[1,5-a][1,3,5]triazin-4-yl]-5,6,7,8-tetrahydroisoquinoline-1,6-diamine] the IC50 was > 1500 nM.
In the case of `CC(C)c1cnn2c(N[C@H]3CCc4c(ccnc4N)C3)nc(-c3cncc(F)c3)nc12` [Compound I-63b, (6S)—N6-[2-(5-fluoro-3-pyridyl)-8-isopropyl-pyrazolo[1,5-a][1,3,5]triazin-4-yl]-5,6,7,8-tetrahydroisoquinoline-1,6-diamine], the IC50 is reported as > 1500 nM.
`COC[C@H](C)c1cnn2c(N[C@@H]3CCc4[nH]c5ccccc5c4C3)nc(-c3cncc(F)c3)nc12` [Compound I-64a, (3R)—N-[2-(5-Fluoro-3-pyridyl)-8-[(1R)-2-methoxy-1-methyl-ethyl]pyrazolo[1,5-a][1,3,5]triazin-4-yl]-2,3,4,9-tetrahydro-1H-carbazol-3-amine] was tested, and the IC50 was < 500 nM.
